{
  "source": "patent US20150150266A1",
  "about": "“PESTICIDE COMPOUNDS, USE THEREOF AND METHOD OF PROTECTION OF PLANTS” (AGRA GROUP, A.S., priority 2012, published 2015)",
  "key": {"Aspergillus flavus": {"test_system": "Aspergillus flavus", "assay": "Fungal mycelium growth inhibition assay (agar dilution)", "format": "cell-based", "conditions": "7 days at 21° C.", "protocol": "(§1) The assay for inhibitory activity of compounds of general formula (I) to radial growth and morphological effects to mycelia was carried out in agar by a multiple dilution method. The compound was diluted to concentrations shown in the Table in potato dextrose agar prepared in accordance with manufacturer's instructions. Petri dishes were filled with the thus prepared agar and aseptically inoculated with a disc of the diameter of 0.4 cm cut from a 7-day agar culture of the respective fungus. Controls were prepared in an analogous manner, using sterile distilled water instead of compound of general formula (I). The Petri dishes were incubated for 7 days at 21° C. and then the diameter of the colonies was measured. The percentage of inhibition of radial growth of the respective fungus was calculated according to the following equation: inhibition [%]=(DC-DT)/DC×100, wherein DC is the diameter of control colony and DT is the diameter of the colony grown on the agar containing the respective amount of compound of general formula (I). Standard deviation corresponds to averages from 3 replications.\n(§2) The compound Cu2SO3.CuSO3.2H2O inhibited the growth of all tested mycelia (Table 1). Individual micelia have shown a variation in the sensitivity to the compound and concentration dependency on the fungicide dose was observed."}, "Aspergillus fumigatus": {"test_system": "Aspergillus fumigatus", "assay": "Fungal mycelium growth inhibition assay (agar dilution)", "format": "cell-based", "conditions": "7 days at 21° C.", "protocol": "as §1, §2"}, "Fusarium oxysporum": {"test_system": "Fusarium oxysporum", "assay": "Fungal mycelium growth inhibition assay (agar dilution)", "format": "cell-based", "conditions": "7 days at 21° C.", "protocol": "as §1, §2"}, "Fusarium verticillioides": {"test_system": "Fusarium verticillioides", "assay": "Fungal mycelium growth inhibition assay (agar dilution)", "format": "cell-based", "conditions": "7 days at 21° C.", "protocol": "as §1, §2"}, "[1]": {"test_system": "Penicillium brevicompactum", "assay": "Fungal mycelium growth inhibition assay (agar dilution)", "format": "cell-based", "conditions": "7 days at 21° C.", "protocol": "as §1, §2"}, "Penicillium expansum": {"test_system": "Penicillium expansum", "assay": "Fungal mycelium growth inhibition assay (agar dilution)", "format": "cell-based", "conditions": "7 days at 21° C.", "protocol": "as §1, §2"}, "Hordeum vulgare L.": {"test_system": "Hordeum vulgare L.", "assay": "Field trial with crops, foliar spraying at BBCH 62", "format": "in vivo", "conditions": "for Yield / Yield, % of the control: foliar spraying of wettable powder A; for Yield, % of the control: control = water", "protocol": "(§3) The experimental field was chosen in a warm region suitable for beet cultivation, with sufficient precipitation, soil type was brown earth. The plants were treated using a common agrotechnology, with the exception of the application of fungicidal protection. […] Water was used as the negative control.\n(§4) At the end of the vegetative season, the crops were harvested and the yield was determined."}, "Triticum aestivum L.": {"test_system": "Triticum aestivum L.", "assay": "Field trial with crops, foliar spraying at BBCH 62", "format": "in vivo", "conditions": "for Yield / Yield, % of the control: foliar spraying of wettable powder A; for Yield, % of the control: control = water", "protocol": "as §3, §4"}},
  "note": "Marks after values point to notes of the source that are not given here.",
  "data": [
    {"smiles": "O.O.O=S([O-])[O-].O=S([O-])[O-].[Cu+2].[Cu+].[Cu+]", "note": "[Cu2SO3•CuSO3•2H2O, Cu2SO3.CuSO3.2H2O (Chevreul's salt)]", "values": [
      {"measurement": "Percentage of radial growth inhibition", "setting": "Aspergillus flavus; 0.3 mg/mL agar", "result": "97.67 ± 0.05", "unit": "%"},
      {"measurement": "Percentage of radial growth inhibition", "setting": "Aspergillus flavus; 0.4 mg/mL agar", "result": "98.84 ± 0.05", "unit": "%"},
      {"measurement": "Percentage of radial growth inhibition", "setting": "Aspergillus flavus; 0.5 mg/mL agar", "result": "100.00 ± 0.00", "unit": "%"},
      {"measurement": "Percentage of radial growth inhibition", "setting": "Aspergillus fumigatus; 0.3 mg/mL agar", "result": "100.00 ± 0.00", "unit": "%"},
      {"measurement": "Percentage of radial growth inhibition", "setting": "Aspergillus fumigatus; 0.4 mg/mL agar", "result": "100.00 ± 0.00", "unit": "%"},
      {"measurement": "Percentage of radial growth inhibition", "setting": "Aspergillus fumigatus; 0.5 mg/mL agar", "result": "100.00 ± 0.00", "unit": "%"},
      {"measurement": "Percentage of radial growth inhibition", "setting": "Fusarium oxysporum; 0.3 mg/mL agar", "result": "6.72 ± 0.05", "unit": "% ^1)"},
      {"measurement": "Percentage of radial growth inhibition", "setting": "Fusarium oxysporum; 0.4 mg/mL agar", "result": "59.70 ± 0.16", "unit": "% ^1)"},
      {"measurement": "Percentage of radial growth inhibition", "setting": "Fusarium oxysporum; 0.5 mg/mL agar", "result": "97.76 ± 0.00", "unit": "%"},
      {"measurement": "Percentage of radial growth inhibition", "setting": "Fusarium verticillioides; 0.3 mg/mL agar", "result": "−2.81 ± 0.00", "unit": "% ^2)"},
      {"measurement": "Percentage of radial growth inhibition", "setting": "Fusarium verticillioides; 0.4 mg/mL agar", "result": "19.10 ± 0.16", "unit": "% ^2)"},
      {"measurement": "Percentage of radial growth inhibition", "setting": "Fusarium verticillioides; 0.5 mg/mL agar", "result": "30.90 ± 0.00", "unit": "% ^2)"},
      {"measurement": "Percentage of radial growth inhibition", "setting": "[1]; 0.3 mg/mL agar", "result": "77.78 ± 0.09", "unit": "%"},
      {"measurement": "Percentage of radial growth inhibition", "setting": "[1]; 0.4 mg/mL agar", "result": "95.24 ± 0.00", "unit": "%"},
      {"measurement": "Percentage of radial growth inhibition", "setting": "[1]; 0.5 mg/mL agar", "result": "100.00 ± 0.00", "unit": "%"},
      {"measurement": "Percentage of radial growth inhibition", "setting": "Penicillium expansum; 0.3 mg/mL agar", "result": "98.37 ± 0.05", "unit": "%"},
      {"measurement": "Percentage of radial growth inhibition", "setting": "Penicillium expansum; 0.4 mg/mL agar", "result": "96.75 ± 0.05", "unit": "%"},
      {"measurement": "Percentage of radial growth inhibition", "setting": "Penicillium expansum; 0.5 mg/mL agar", "result": "100.00 ± 0.00", "unit": "%"},
      {"measurement": "Yield", "setting": "Hordeum vulgare L.; 2011, 125 g/ha", "result": 8.65, "unit": "t/ha"},
      {"measurement": "Yield, % of the control", "setting": "Hordeum vulgare L.; 2011, 125 g/ha", "result": 103.2, "unit": "%"},
      {"measurement": "Yield", "setting": "Hordeum vulgare L.; 2011, 625 g/ha", "result": 8.73, "unit": "t/ha"},
      {"measurement": "Yield, % of the control", "setting": "Hordeum vulgare L.; 2011, 625 g/ha", "result": 104.2, "unit": "%"},
      {"measurement": "Phytotoxic effects", "setting": "Hordeum vulgare L.; 2011, high dose 625 g/ha", "result": "No phytotoxic effects were observed even at this dose"},
      {"measurement": "Occurrence of fusarioses or other fungal diseases", "setting": "Hordeum vulgare L.; field trial, doses of Table 3", "result": "neither occurrence of fusarioses or other fungal diseases"},
      {"measurement": "Phytotoxic effects", "setting": "Hordeum vulgare L.; field trial, doses of Table 3", "result": "No phytotoxic effects were observed"},
      {"measurement": "Yield", "setting": "Triticum aestivum L.; 2010, 125 g/ha", "result": 7.34, "unit": "t/ha"},
      {"measurement": "Yield, % of the control", "setting": "Triticum aestivum L.; 2010, 125 g/ha", "result": 104.7, "unit": "%"},
      {"measurement": "Yield", "setting": "Triticum aestivum L.; 2011, 125 g/ha", "result": 8.45, "unit": "t/ha"},
      {"measurement": "Yield, % of the control", "setting": "Triticum aestivum L.; 2011, 125 g/ha", "result": 108.1, "unit": "%"},
      {"measurement": "Yield", "setting": "Triticum aestivum L.; 2011, 625 g/ha", "result": 8.60, "unit": "t/ha"},
      {"measurement": "Yield, % of the control", "setting": "Triticum aestivum L.; 2011, 625 g/ha", "result": 110.1, "unit": "%"},
      {"measurement": "Phytotoxic effects", "setting": "Triticum aestivum L.; 2011, high dose 625 g/ha", "result": "No phytotoxic effects were observed even at this dose"},
      {"measurement": "Occurrence of fusarioses or other fungal diseases", "setting": "Triticum aestivum L.; field trial, doses of Table 3", "result": "neither occurrence of fusarioses or other fungal diseases"},
      {"measurement": "Phytotoxic effects", "setting": "Triticum aestivum L.; field trial, doses of Table 3", "result": "No phytotoxic effects were observed"}
    ]}
  ]
}
